Test results: US20240025907A1, “QUINAZOLINE PAN-KRas INHIBITORS” (Mirati Therapeutics, Inc., priority 2022, published 2024)
Like-named read-outs stand apart in the source and are kept apart here.

Legend:
Format in all cases: cell-based
[1] = tested on: KRas-mediated Phosphorylation of ERK in H727 cells; test: Cisbio HTRF pERK assay, H727 cells; conditions: for IC50: 3 hrs compound, read-out: Inhibition (HTRF IC50 nM) of KRas-mediated Phosphorylation of ERK, H727
[2] = tested on: KRas-mediated Phosphorylation of ERK in HCT116 cells; test: Cisbio HTRF pERK assay, HCT116 cells; conditions: for IC50: HCT116 cells, 3 hrs compound, read-out: Inhibition (HTRF IC50 nM) of KRas-mediated Phosphorylation of ERK, HCT116
[3] = tested on: KRas-mediated Phosphorylation of ERK in A549 cells; test: Cisbio HTRF pERK assay, A549 cells; conditions: for IC50: A549 cells, 3 hrs compound, read-out: Inhibition (HTRF IC50 nM) of KRas-mediated Phosphorylation of ERK, A549
[4] = tested on: KRas-mediated Phosphorylation of ERK in H460 cells; test: Cisbio HTRF pERK assay, H460 cells; conditions: for IC50: H460 cells, 3 hrs compound, read-out: Inhibition (HTRF IC50 nM) of KRas-mediated Phosphorylation of ERK, H460
[5] = tested on: KRas-mediated Phosphorylation of ERK in H358 cells; test: Cisbio HTRF pERK assay, H358 cells; conditions: for IC50: H358 cells, 3 hrs compound, read-out: Inhibition (HTRF IC50 nM) of KRas-mediated Phosphorylation of ERK, H358
[6] = tested on: KRas-mediated Phosphorylation of ERK in PSN1 cells; test: Cisbio HTRF pERK assay, PSN1 cells; conditions: 3 hour compound, read-out: Inhibition (HTRF IC50 nM) of KRas-mediated Phosphorylation of ERK, PSN1
Method: Inhibition of KRas Phosphorylation of ERK (HTRF) by Exemplary Compounds of Formula (I) • Cisbio HTRF Advanced pERK Assay Catalog #64AERPEH • Cell: MKN1, PSN1 • Procedure: • Day 1: Seed 6,000 cells/well −25 μl/well in 384-well white solid bottom plate; RPM1_10% FBS.

[7] = tested on: KRas-mediated Phosphorylation of ERK in AsPC-1 cells; test: Cisbio HTRF pERK assay, AsPC-1 cells; conditions: for IC50: 3 hrs compound, read-out: Inhibition (HTRF IC50 nM) of KRas-mediated Phosphorylation of ERK, AsPC-1

Structure (SMILES)	IC50 [1]	IC50 [2]	IC50 [3]	IC50 [4]	IC50 [5]	IC50 [7]	IC50 [6]	other results
CN(C)C(=O)c1cc2n(n1)CCCN(c1nc(OC[C@@]34CCCN3C/C(=C\F)C4)nc3c(F)c(-c4ccc(F)c5sc(N)c(C#N)c45)c(Cl)cc13)C2 (atropisomer, axis not shown) [Example 195, 5-((R)-7-(2-amino-3-cyano-7-fluorobenzo[b]thiophen-4-yl)-6-chloro-8-fluoro-2-(((S,Z)-2-(fluoromethylene)tetrahydro-1H-pyrrolizin-7a(5H)-yl)methoxy)quinazolin-4-yl)-N,N-dimethyl-5,6,7,8-tetrahydro-4H-pyrazolo[1,5-a][1,4]diazepine-2-carboxamide]	2 nM	6 nM	2 nM	2 nM	1 nM	–	–	IC50 ([6]; Homo sapiens, PSN1, 3 h): 115 nM
CN(C)C(=O)n1cc2c(n1)CCCN(c1nc(OC[C@@]34CCCN3C[C@H](F)C4)nc3c(F)c(-c4ccc(F)c5sc(N)c(C#N)c45)c(Cl)cc13)C2 (atropisomer, axis not shown; (aS)) [Example 186, 5-((S)-7-(2-amino-3-cyano-7-fluorobenzo[b]thiophen-4-yl)-6-chloro-8-fluoro-2-(((2R,7aS)-2-fluorotetrahydro-1H-pyrrolizin-7a(5H)-yl)methoxy)quinazolin-4-yl)-N,N-dimethyl-5,6,7,8-tetrahydropyrazolo[4,3-c]azepine-2(4H)-carboxamide]	202 nM	670 nM	382 nM	341 nM	98 nM	162 nM	> 10000 nM	–
N#Cc1c(N)sc2c(F)ccc(-c3c(Cl)cc4c(N5CCCn6nc(N)c(Cl)c6C5)nc(OC[C@@]56CCCN5C[C@H](F)C6)nc4c3F)c12 (atropisomer, axis not shown; (aS)) [Example 188, 2-amino-4-((R)-4-(2-amino-3-chloro-7,8-dihydro-4H-pyrazolo[1,5-a][1,4]diazepin-5(6H)-yl)-6-chloro-8-fluoro-2-(((2R,7aS)-2-fluorotetrahydro-1H-pyrrolizin-7a(5H)-yl)methoxy)quinazolin-7-yl)-7-fluorobenzo[b]thiophene-3-carbonitrile]	10 nM	18 nM	14 nM	13 nM	2 nM	3 nM	544 nM	–
N#Cc1c(N)sc2c(F)ccc(-c3c(Cl)cc4c(N5CCCn6nc(N)c(Cl)c6C5)nc(OC[C@@]56CCCN5C[C@H](F)C6)nc4c3F)c12 (atropisomer, axis not shown; (aS)) [Example 189, 2-amino-4-((S)-4-(2-amino-3-chloro-7,8-dihydro-4H-pyrazolo[1,5-a][1,4]diazepin-5(6H)-yl)-6-chloro-8-fluoro-2-(((2R,7aS)-2-fluorotetrahydro-1H-pyrrolizin-7a(5H)-yl)methoxy)quinazolin-7-yl)-7-fluorobenzo[b]thiophene-3-carbonitrile]	882 nM	2470 nM	3350 nM	1530 nM	327 nM	472 nM	7470 nM	–
CCc1c(F)ccc2cc(O)cc(-c3c(F)cc4c(N5CCCC6(CCO6)C5)nc(OCC5(CN(C)C)CC5)nc4c3F)c12 (stereo not shown) [Example 82, 4-(2-((1-((dimethylamino)methyl)cyclopropyl)methoxy)-6,8-difluoro-4-(1-oxa-6-azaspiro[3.5]nonan-6-yl)quinazolin-7-yl)-5-ethyl-6-fluoronaphthalen-2-ol]	–	–	–	–	–	–	–	inhibition at 0.1 µM ([7]; Homo sapiens, ASPC1, single point at 100 nM): 72%; inhibition at 0.1 µM ([1]; Homo sapiens, NCI-H727, single point at 100 nM): 34%; inhibition at 0.1 µM ([2]; Homo sapiens, HCT-116, HCT116 cells, single point at 100 nM): 24%; inhibition at 0.1 µM ([3]; Homo sapiens, A549, A549 cells, single point at 100 nM): 33%; inhibition at 0.1 µM ([4]; Homo sapiens, NCI-H460, H460 cells, single point at 100 nM): 63%; inhibition at 0.1 µM ([5]; Homo sapiens, NCI-H358, H358 cells, single point at 100 nM): 80%
N#Cc1c(N)sc2c(F)ccc(-c3c(Cl)cc4c(N5CC6CCC(C5)N6)nc(OC[C@@]56CCCN5C/C(=C\F)C6)nc4c3F)c12 [Example 179, (S)-4-(4-((1R,5S)-3,8-diazabicyclo[3.2.1]octan-3-yl)-6-chloro-8-fluoro-2-(((S,Z)-2-(fluoromethylene)tetrahydro-1H-pyrrolizin-7a(5H)-yl)methoxy)quinazolin-7-yl)-2-amino-7-fluorobenzo[b]thiophene-3-carbonitrile]	6810 nM	3770 nM	3140 nM	2320 nM	2610 nM	116 nM	–	–
C=C1CN2CCC[C@]2(COc2nc(N3CC4CCC(C3)N4)c3cc(Cl)c(-c4ccc(F)c5sc(N)c(C#N)c45)c(F)c3n2)C1 [Example 181, (S)-4-(4-((1R,5S)-3,8-diazabicyclo[3.2.1]octan-3-yl)-6-chloro-8-fluoro-2-(((R)-2-methylenetetrahydro-1H-pyrrolizin-7a(5H)-yl)methoxy)quinazolin-7-yl)-2-amino-7-fluorobenzo[b]thiophene-3-carbonitrile]	8500 nM	8030 nM	> 10000 nM	9660 nM	4560 nM	950 nM	5260 nM	–
C=C1CN2CCC[C@]2(COc2nc(N3CC4CCC(C3)N4)c3cc(Cl)c(-c4ccc(F)c5sc(N)c(C#N)c45)c(F)c3n2)C1 [Example 182, (R)-4-(4-((1R,5S)-3,8-diazabicyclo[3.2.1]octan-3-yl)-6-chloro-8-fluoro-2-(((R)-2-methylenetetrahydro-1H-pyrrolizin-7a(5H)-yl)methoxy)quinazolin-7-yl)-2-amino-7-fluorobenzo[b]thiophene-3-carbonitrile]	1390 nM	114 nM	377 nM	207 nM	136 nM	4 nM	1820 nM	–
C=C1CN2CCC[C@@]2(COc2nc(N3CC4CCC(C3)N4)c3cc(Cl)c(-c4ccc(F)c5sc(N)c(C#N)c45)c(F)c3n2)C1 [Example 183, (S)-4-(4-((1R,5S)-3,8-diazabicyclo[3.2.1]octan-3-yl)-6-chloro-8-fluoro-2-(((S)-2-methylenetetrahydro-1H-pyrrolizin-7a(5H)-yl)methoxy)quinazolin-7-yl)-2-amino-7-fluorobenzo[b]thiophene-3-carbonitrile]	> 10000 nM	4800 nM	> 10000 nM	8090 nM	6740 nM	254 nM	6150 nM	–
C=C1CN2CCC[C@@]2(COc2nc(N3CC4CCC(C3)N4)c3cc(Cl)c(-c4ccc(F)c5sc(N)c(C#N)c45)c(F)c3n2)C1 [Example 184, (R)-4-(4-((1R,5S)-3,8-diazabicyclo[3.2.1]octan-3-yl)-6-chloro-8-fluoro-2-(((S)-2-methylenetetrahydro-1H-pyrrolizin-7a(5H)-yl)methoxy)quinazolin-7-yl)-2-amino-7-fluorobenzo[b]thiophene-3-carbonitrile]	610 nM	39 nM	160 nM	82 nM	40 nM	1 nM	701 nM	–
N#Cc1c(N)sc2c(F)ccc(-c3c(Cl)cc4c(N5C[C@@H]6C(=O)NC(=O)[C@@H]6C5)nc(OC[C@@]56CCCN5C[C@H](F)C6)nc4c3F)c12 [Example 200, 2-amino-4-(6-chloro-4-((3aR,6aS)-4,6-dioxohexahydropyrrolo[3,4-c]pyrrol-2(1H)-yl)-8-fluoro-2-(((2R,7aS)-2-fluorotetrahydro-1H-pyrrolizin-7a(5H)-yl)methoxy)quinazolin-7-yl)-7-fluorobenzo[b]thiophene-3-carbonitrile]	–	–	–	–	–	–	–	IC50 ([7]; Homo sapiens, ASPC1, 3 h): 2740 nM; IC50 ([1]; Homo sapiens, NCI-H727, 3 h): 4730 nM; IC50 ([2]; Homo sapiens, HCT-116, 3 h): 4560 nM; IC50 ([3]; Homo sapiens, A549, 3 h): > 10000 nM; IC50 ([4]; Homo sapiens, NCI-H460, 3 h): 2760 nM; IC50 ([5]; Homo sapiens, NCI-H358, 3 h): 1680 nM
